Results as given in patent publication US20200261391A1, “METHODS OF REDUCING THE RISK OF A CARDIOVASCULAR EVENT IN A STATIN-TREATED SUBJECT BY INCREASING SERUM AND PLASMA EPA AND DPA LEVELS” (Amarin Pharmaceuticals Ireland Limited, priority 2019, published 2020).
“And” between values parts separate entries of the source, which are not always exact repeats. Equal entries are not always repeated.

How the values were obtained:
[1] = tested on: patients with elevated triglyceride levels on statin therapy; experiment: REDUCE-IT endpoints by EPA blood level tertile in the icosapent ethyl group compared to placebo; type: in vivo, human
Experimental: To assess the relationship between on-treatment hsCRP and the primary and key secondary endpoints, subgroup analyses were carried out as done for the ITT population for patients grouped according to values greater or equal to or less than […] at baseline and at 2 years. To assess the relationship between on-treatment serum EPA and the primary and key secondary endpoints, Kaplan-Meier (KM) curves were produced for AMR101 treated patients grouped into tertiles based on their values at year 1 and were compared with the placebo-treated patients.
(§1) This is a study aimed towards determining a relative risk reduction (RRR) between subjects stratified by EPA tertiles in the REDUCE-IT clinical trial described above in Example 1. Samples were obtained from those subjects and total EPA and AA levels in human serum and plasma samples were determined according at least to the methods described in Example 7.
(§2) The objective of this study is to assess the effects of administering icosapent ethyl at 4 g per day to patients from the REDUCE-IT trial of Example 1. More specifically, patients from the REDUCE-IT trial of Example 1 were stratified by their EPA levels into one of three tertiles. Following stratification, the objective was to determine if the RRR differs between patients having EPA levels in the three different tertiles. For the data collected as shown in Tables 38-43 and FIGS. 52, 53, and 56-59, the tertiles were established based on data collected from subjects at 1 year, 2 years, and last visit following icosapent ethyl administration compared to placebo. Data are presented as an average of 1 year, 2 year, […], and end of study values. The data was further analyzed use both pooled and unpooled statistically methods.

[2] = tested on: patients with elevated triglyceride levels on statin therapy; experiment: REDUCE-IT endpoints by EPA/AA ratio tertile in the icosapent ethyl group compared to placebo; type: in vivo, human
Experimental: as §1, §2

[3] = EPA >189 μg/mL, on-treatment average of year 1, year 2, last visit
[4] = EPA >114.7 to ≤189 μg/mL, on-treatment average of year 1, year 2, last visit
[5] = EPA ≤114.7 μg/mL, on-treatment average of year 1, year 2, last visit
[6] = EPA/AA >0.373068 to ≤0.727974, on-treatment average
[7] = EPA/AA >0.727974, on-treatment average

## CC/C=C\C/C=C\C/C=C\C/C=C\C/C=C\CCCC(=O)OCC [icosapent ethyl, eicosapentaenoic acid ethyl ester]
[1]; EPA >189 μg/mL
  key secondary endpoint HR, highest EPA tertile vs. placebo: 0.65
  primary endpoint HR, highest EPA tertile vs. placebo: 0.65
[1]; [3]
  HR (95% CI), Key Secondary Endpoint, Highest EPA tertile vs Placebo: 0.65 (0.54, 0.80)
  HR (95% CI), Primary Endpoint, Highest EPA tertile vs Placebo: 0.65 (0.55, 0.76)
[1]; EPA >114.7 to ≤189 μg/mL
  key secondary endpoint HR, middle EPA tertile vs. placebo: 0.65
  primary endpoint HR, middle EPA tertile vs. placebo: 0.72
[1]; [4]
  HR (95% CI), Key Secondary Endpoint, Middle EPA tertile vs Placebo: 0.65 (0.53, 0.79)
  HR (95% CI), Primary Endpoint, Middle EPA tertile vs Placebo: 0.72 (0.62, 0.85)
[1]; EPA blood level ≤114.7 μg/mL
  key secondary endpoint HR, lowest EPA tertile vs. placebo: 0.89
  primary endpoint HR, lowest EPA tertile vs. placebo: 0.84
[1]; [5]
  HR (95% CI), Key Secondary Endpoint, Lowest EPA tertile vs Placebo: 0.89 (0.74, 1.07)
  HR (95% CI), Primary Endpoint, Lowest EPA tertile vs Placebo: 0.84 (0.72, 0.98)
[1]; FIG. 53, ITT, EPA >190.55 μg/mL
  primary composite endpoint HR, highest EPA tertile vs. placebo: 0.63
[1]; FIG. 53, ITT, EPA >116.9 to ≤190.55 μg/mL
  primary composite endpoint HR, middle EPA tertile vs. placebo: 0.74
[1]; FIG. 53, ITT, EPA ≤116.9 μg/mL
  primary composite endpoint HR, lowest EPA tertile vs. placebo: 0.85
[2]; EPA/AA >0.373068 to ≤0.727974
  key secondary endpoint HR, middle EPA/AA tertile vs. placebo: 0.61
  primary endpoint HR, middle EPA/AA tertile vs. placebo: 0.70
[2]; [6]
  HR (95% CI), Key Secondary Endpoint, Middle EPA/AA ratio tertile vs Placebo: 0.61 (0.49, 0.75)
  HR (95% CI), Primary Endpoint, Middle EPA/AA ratio tertile vs Placebo: 0.70 (0.59, 0.82)
[2]; EPA/AA >0.727974
  key secondary endpoint HR, highest EPA/AA tertile vs. placebo: 0.65
  primary endpoint HR, highest EPA/AA tertile vs. placebo: 0.67
[2]; [7]
  HR (95% CI), Key Secondary Endpoint, Highest EPA/AA ratio tertile vs Placebo: 0.65 (0.54, 0.80)
  HR (95% CI), Primary Endpoint, Highest EPA/AA ratio tertile vs Placebo: 0.67 (0.57, 0.79)
[2]; EPA/AA ≤0.373068
  key secondary endpoint HR, lowest EPA/AA tertile vs. placebo: 0.94
  primary endpoint HR, lowest EPA/AA tertile vs. placebo: 0.83
[2]; EPA/AA ≤0.373068, on-treatment average
  HR (95% CI), Key Secondary Endpoint, Lowest EPA/AA ratio tertile vs Placebo: 0.94 (0.78, 1.13)
[2]; FIG. 55, ITT, EPA/AA >0.7403
  primary endpoint HR, highest EPA/AA tertile vs. placebo: 0.70 and 0.63
[2]; FIG. 55, ITT, EPA/AA ≤0.3845
  primary endpoint HR, lowest EPA/AA tertile vs. placebo: 0.88
